Reference: patent publication US7118895B2, “Process for producing aglycon by using diglycosidase and flavor-improved food containing the aglycon and converting agent to be used in the process” (Amano Enzyme Inc., priority 2000, dated 2006)

Test system: Crude diglycosidase
Assay: Examination of temperature in the conversion into isoflavone aglycons by diglycosidase using soybean materials
Type: biochemical, Penicillium multicolor IAM7153
Design: Decomposition efficiency of glycitin family in roasted soy flour / Decomposition efficiency of daidzin family in roasted soy flour / Decomposition efficiency of genistin family in soymilk / Decomposition efficiency of daidzin family in soymilk / Decomposition efficiency of glycitin family in defatted soybean / Decomposition efficiency of daidzin family in defatted soybean: concentration or dose not given beside the values
Experimental: Into 400 μL of 20 mM acetate buffer of pH 4.0 was suspended 50 mg of each of various soybean materials (roasted soy flour (manufactured by Fuji Shokuryo K.K.), soymilk (manufactured by Gitoh Shokuhin K.K.), defatted soybean (manufactured by Fuji Seiyu K.K.), concentrated soybean protein (manufactured by Fuji Seiyu K.K.)), whereby a substrate solution was prepared. Crude diglycosidase was diluted with 20 mM acetate buffer of pH 4.0 to be the glycosidase activity of 1.88 AU/mL. Fifty μL of the enzyme solution was mixed with the substrate solution and the whole was reacted at 80, 65, 55, 45, 37, or 30° C. at the total volume of 500 μL. To the reaction mixture was added 700 μL of ethanol after 0, 1, 3, and 6 hours of the reaction. After stirring and ultrasonication, the mixture was subjected to centrifugal separation at 15,000 rpm and 4° C. for 10 minutes. The supernatant was filtered through a filter and the existence of isoflavone glycosides and aglycon isoflavones contained in the reaction mixture was detected by HLPC.

[1] = 30° C., heat treatment of enzyme no, reaction time 0 h
[2] = 30° C., heat treatment of enzyme no, reaction time 1 h
[3] = 30° C., heat treatment of enzyme no, reaction time 3 h
[4] = 30° C., heat treatment of enzyme no, reaction time 6 h
[5] = 30° C., heat treatment of enzyme yes, reaction time 6 h
[6] = 30 °C, heat treatment of enzyme: no, 0 h
[7] = 30 °C, heat treatment of enzyme: no, 1 h
[8] = 30 °C, heat treatment of enzyme: no, 3 h
[9] = 30 °C, heat treatment of enzyme: no, 6 h
[10] = 30 °C, heat treatment of enzyme: yes, 6 h
[11] = 45° C., heat treatment of enzyme no, reaction time 0 h
[12] = 45° C., heat treatment of enzyme no, reaction time 1 h
[13] = 45° C., heat treatment of enzyme no, reaction time 3 h
[14] = 45° C., heat treatment of enzyme no, reaction time 6 h
[15] = 45° C., heat treatment of enzyme yes, reaction time 6 h
[16] = 45 °C, heat treatment of enzyme: no, 0 h
[17] = 45 °C, heat treatment of enzyme: no, 1 h
[18] = 45 °C, heat treatment of enzyme: no, 3 h
[19] = 45 °C, heat treatment of enzyme: no, 6 h
[20] = 45 °C, heat treatment of enzyme: yes, 6 h
[21] = 55° C., heat treatment of enzyme no, reaction time 0 h
[22] = 55° C., heat treatment of enzyme no, reaction time 1 h
[23] = 55° C., heat treatment of enzyme no, reaction time 3 h
[24] = 55° C., heat treatment of enzyme no, reaction time 6 h
[25] = 55° C., heat treatment of enzyme yes, reaction time 6 h
[26] = 55 °C, heat treatment of enzyme: no, 0 h
[27] = 55 °C, heat treatment of enzyme: no, 1 h
[28] = 55 °C, heat treatment of enzyme: no, 3 h
[29] = 55 °C, heat treatment of enzyme: no, 6 h
[30] = 55 °C, heat treatment of enzyme: yes, 6 h
[31] = 65° C., heat treatment of enzyme no, reaction time 0 h
[32] = 65° C., heat treatment of enzyme no, reaction time 1 h
[33] = 65° C., heat treatment of enzyme no, reaction time 3 h
[34] = 65° C., heat treatment of enzyme no, reaction time 6 h
[35] = 65° C., heat treatment of enzyme yes, reaction time 6 h
[36] = 65 °C, heat treatment of enzyme: no, 0 h
[37] = 65 °C, heat treatment of enzyme: no, 1 h
[38] = 65 °C, heat treatment of enzyme: no, 3 h
[39] = 65 °C, heat treatment of enzyme: no, 6 h
[40] = 65 °C, heat treatment of enzyme: yes, 6 h
[41] = 80° C., heat treatment of enzyme no, reaction time 0 h
[42] = 80° C., heat treatment of enzyme no, reaction time 1 h
[43] = 80° C., heat treatment of enzyme no, reaction time 3 h
[44] = 80° C., heat treatment of enzyme no, reaction time 6 h
[45] = 80° C., heat treatment of enzyme yes, reaction time 6 h
[46] = 80 °C, heat treatment of enzyme: no, 0 h
[47] = 80 °C, heat treatment of enzyme: no, 1 h
[48] = 80 °C, heat treatment of enzyme: no, 3 h
[49] = 80 °C, heat treatment of enzyme: no, 6 h
[50] = 80 °C, heat treatment of enzyme: yes, 6 h

Decomposition efficiency of genistin family in concentrated soybean protein [1]: 43.1%
Decomposition efficiency of genistin family in defatted soybean [1]: 1.7%
Decomposition efficiency of genistin family in concentrated soybean protein [2]: 43.2%
Decomposition efficiency of genistin family in defatted soybean [2]: 1.3%
Decomposition efficiency of genistin family in concentrated soybean protein [3]: 43.0%
Decomposition efficiency of genistin family in defatted soybean [3]: 0.7%
Decomposition efficiency of genistin family in concentrated soybean protein [4]: 42.5%
Decomposition efficiency of genistin family in defatted soybean [4]: 0.1%
Decomposition efficiency of genistin family in concentrated soybean protein [5]: 41.5%
Decomposition efficiency of genistin family in defatted soybean [5]: 0.4%
Decomposition efficiency of genistin family in roasted soy flour [6]: 45.5%
Decomposition efficiency of genistin family in soymilk [6]: 0.9%
Decomposition efficiency of genistin family in roasted soy flour [7]: 45.3%
Decomposition efficiency of genistin family in soymilk [7]: not detected
Decomposition efficiency of genistin family in roasted soy flour [8]: 43.8%
Decomposition efficiency of genistin family in soymilk [8]: not detected
Decomposition efficiency of genistin family in roasted soy flour [9]: 40.6%
Decomposition efficiency of genistin family in soymilk [9]: not detected
Decomposition efficiency of genistin family in roasted soy flour [10]: 43.8%
Decomposition efficiency of genistin family in soymilk [10]: 0.9%
Decomposition efficiency of genistin family in concentrated soybean protein [11]: 43.0%
Decomposition efficiency of genistin family in defatted soybean [11]: 1.5%
Decomposition efficiency of genistin family in concentrated soybean protein [12]: 42.8%
Decomposition efficiency of genistin family in defatted soybean [12]: 0.8%
Decomposition efficiency of genistin family in concentrated soybean protein [13]: 41.0%
Decomposition efficiency of genistin family in defatted soybean [13]: 0.3%
Decomposition efficiency of genistin family in concentrated soybean protein [14]: 39.6%
Decomposition efficiency of genistin family in defatted soybean [14]: 0.2%
Decomposition efficiency of genistin family in concentrated soybean protein [15]: 38.9%
Decomposition efficiency of genistin family in defatted soybean [15]: 0.2%
Decomposition efficiency of genistin family in roasted soy flour [16]: 45.3%
Decomposition efficiency of genistin family in soymilk [16]: 0.9%
Decomposition efficiency of genistin family in roasted soy flour [17]: 43.6%
Decomposition efficiency of genistin family in soymilk [17]: not detected
Decomposition efficiency of genistin family in roasted soy flour [18]: 38.5%
Decomposition efficiency of genistin family in soymilk [18]: not detected
Decomposition efficiency of genistin family in roasted soy flour [19]: 31.7%
Decomposition efficiency of genistin family in soymilk [19]: not detected
Decomposition efficiency of genistin family in roasted soy flour [20]: 39.5%
Decomposition efficiency of genistin family in soymilk [20]: 0.6%
Decomposition efficiency of genistin family in concentrated soybean protein [21]: 42.9%
Decomposition efficiency of genistin family in defatted soybean [21]: 1.7%
Decomposition efficiency of genistin family in concentrated soybean protein [22]: 43.1%
Decomposition efficiency of genistin family in defatted soybean [22]: 0.7%
Decomposition efficiency of genistin family in concentrated soybean protein [23]: 41.1%
Decomposition efficiency of genistin family in defatted soybean [23]: 0.2%
Decomposition efficiency of genistin family in concentrated soybean protein [24]: 39.0%
Decomposition efficiency of genistin family in defatted soybean [24]: 0.1%
Decomposition efficiency of genistin family in concentrated soybean protein [25]: 41.1%
Decomposition efficiency of genistin family in defatted soybean [25]: 0.4%
Decomposition efficiency of genistin family in roasted soy flour [26]: 45.7%
Decomposition efficiency of genistin family in soymilk [26]: 0.6%
Decomposition efficiency of genistin family in roasted soy flour [27]: 42.5%
Decomposition efficiency of genistin family in soymilk [27]: not detected
Decomposition efficiency of genistin family in roasted soy flour [28]: 34.0%
Decomposition efficiency of genistin family in soymilk [28]: not detected
Decomposition efficiency of genistin family in roasted soy flour [29]: 27.3%
Decomposition efficiency of genistin family in soymilk [29]: not detected
Decomposition efficiency of genistin family in roasted soy flour [30]: 39.9%
Decomposition efficiency of genistin family in soymilk [30]: 0.7%
Decomposition efficiency of genistin family in concentrated soybean protein [31]: 43.1%
Decomposition efficiency of genistin family in defatted soybean [31]: 1.5%
Decomposition efficiency of genistin family in concentrated soybean protein [32]: 45.2%
Decomposition efficiency of genistin family in defatted soybean [32]: 1.2%
Decomposition efficiency of genistin family in concentrated soybean protein [33]: 44.0%
Decomposition efficiency of genistin family in defatted soybean [33]: 1.2%
Decomposition efficiency of genistin family in concentrated soybean protein [34]: 43.4%
Decomposition efficiency of genistin family in defatted soybean [34]: 1.1%
Decomposition efficiency of genistin family in concentrated soybean protein [35]: 42.3%
Decomposition efficiency of genistin family in defatted soybean [35]: 1.3%
Decomposition efficiency of genistin family in roasted soy flour [36]: 45.5%
Decomposition efficiency of genistin family in soymilk [36]: 0.9%
Decomposition efficiency of genistin family in roasted soy flour [37]: 43.6%
Decomposition efficiency of genistin family in soymilk [37]: not detected
Decomposition efficiency of genistin family in roasted soy flour [38]: 40.5%
Decomposition efficiency of genistin family in soymilk [38]: not detected
Decomposition efficiency of genistin family in roasted soy flour [39]: 38.8%
Decomposition efficiency of genistin family in soymilk [39]: not detected
Decomposition efficiency of genistin family in roasted soy flour [40]: 44.3%
Decomposition efficiency of genistin family in soymilk [40]: 1.1%
Decomposition efficiency of genistin family in concentrated soybean protein [41]: 43.0%
Decomposition efficiency of genistin family in defatted soybean [41]: 1.5%
Decomposition efficiency of genistin family in concentrated soybean protein [42]: 44.0%
Decomposition efficiency of genistin family in defatted soybean [42]: 1.8%
Decomposition efficiency of genistin family in concentrated soybean protein [43]: 43.6%
Decomposition efficiency of genistin family in defatted soybean [43]: 2.1%
Decomposition efficiency of genistin family in concentrated soybean protein [44]: 43.4%
Decomposition efficiency of genistin family in defatted soybean [44]: 2.5%
Decomposition efficiency of genistin family in concentrated soybean protein [45]: 41.4%
Decomposition efficiency of genistin family in defatted soybean [45]: 2.4%
Decomposition efficiency of genistin family in roasted soy flour [46]: 45.3%
Decomposition efficiency of genistin family in soymilk [46]: 0.9%
Decomposition efficiency of genistin family in roasted soy flour [47]: 48.5%
Decomposition efficiency of genistin family in soymilk [47]: 0.9%
Decomposition efficiency of genistin family in roasted soy flour [48]: 48.2%
Decomposition efficiency of genistin family in soymilk [48]: 1.0%
Decomposition efficiency of genistin family in roasted soy flour [49]: 47.7%
Decomposition efficiency of genistin family in soymilk [49]: 2.3%
Decomposition efficiency of genistin family in roasted soy flour [50]: 43.4%
Decomposition efficiency of genistin family in soymilk [50]: 2.5%
Structure (SMILES): CC(=O)OC[C@H]1O[C@@H](Oc2cc(O)c3c(=O)c(-c4ccc(O)cc4)coc3c2)[C@H](O)[C@@H](O)[C@@H]1O [acetylgenistin, 6″-O-acetylgenistin]
